Source: patent publication US7910621B2, “Small molecule antagonists of XIAP family proteins” (The Regents of the University of Michigan, priority 2004, dated 2011)

How the values were obtained:
[1] = tested on: PC-3 prostate cancer cells; test: Annexin V-FITC apoptosis assay by flow cytometry, PC-3; format: cell-based, human; conditions: 48 hours
Description: FIG. 6 presents induction of apoptosis by embelin in PC-3 prostate cancer cells. 1×10^6 PC-3 cells per well in 6-well culture plates were treated with embelin for 48 hours, stained with Annexin V-FITC and propidium iodide for apoptosis by flow cytometry. The results are shown as percent of Annexin V-FITC positive apoptotic cells (n=3).
(§1) PC-3 cells, 1×10^6 cells per well in 6-well culture plates, were treated in triplicate with various concentrations of embelin for 24 or 48 hours, then trypsinized and washed with PBS. For Jurkat cells, 1×10^6 Jurkat-XIAP or Jurkat-Vec cells per well in 6-well culture plates, were treated with etoposide, embelin, or both for 15 hours. For flow cytometry apoptosis assay, cells were stained with Annexin V-FITC and propidium iodide using the Annexin-V-FLUOS Kit (Roche) according to the manufacturer's instruction. The fluorescence of Annexin V-FITC and propidium iodide of individual cells was analyzed by FACScan. The results are shown as percent of Annexin V-FITC positive apoptotic cells.

caspase-9 in PC-3 cells = test: Activation of caspase-9 assay, PC-3; format: cell-based, human; conditions: for increase in activated caspase-9 as compared to vehicle treated control cells / PC-3 cells positively stained for activated caspase-9: 42 hrs; for PC-3 cells positively stained for activated caspase-9: vehicle control 3.1%
Description: FIGS. 7A and 7B show the activation of caspase-9 by embelin in PC-3 prostate cancer cells and its selectivity in normal prostate epithelial cells. 1×10^6 PC-3 or PrEC cells per well in 6-well culture plates were treated with embelin for 48 hours. […] The cells were collected and stained of active caspase-9 by CaspGLOW Red Active Caspase-9 Staining Kit, and analyzed by flow cytometry in PI channel.
1×10^6 PC-3 cells per well in 6-well culture plates, were treated with various concentrations of embelin, or the same amount of solvent DMSO as vehicle control, for up to 48 hr. […] The cells were collected for staining of active caspase-9 by CaspGLOW Red Active Caspase-9 Staining Kit (BioVision, Inc., Mountain View, Calif.) according to the manufacturer's instructions, with modification. Briefly, to each tube containing 1×10^6 treated or control cells in 0.3 ml complete culture medium was added 1 μl of Red-LEHD-FMK and incubated for 0.5 hr at 37° C. incubator with 5% CO2. For double staining with Annexin V-FITC, the cells were spun down and resuspended in 100 μl Binding Buffer containing 1× Annexin V-FITC from the Annexin-V-FLUOS Kit (Roche) and incubated at room temperature for 10 min. The cells were then washed two times with Wash Buffer from the Active Caspase-9 Staining Kit. The cells were resuspended in 0.3 ml Binding Buffer and analyzed by flow cytometry, using PI channel for active caspase-9 and FITC channel for apoptosis.
The active caspase-9 and Annexin V double stained cells were also observed under Zeiss Laser Scanning Confocal Microscope LSM 510 Meta, using the fluorescent filter sets for rhodamine (Red) and FITC (green) channels. Early apoptotic cells show green fluorescence on the cell membrane while caspase-9 positive cells show bright red staining in the cytoplasm. Photos were taken at original magnification of 630×.

[2] = tested on: caspase-9 in normal PrEC cells; test: Activation of caspase-9 assay, PrEC; format: cell-based, human; conditions: compared to vehicle treated control cells
Description: FIGS. 7A and 7B show the activation of caspase-9 by embelin in PC-3 prostate cancer cells and its selectivity in normal prostate epithelial cells. 1×10^6 PC-3 or PrEC cells per well in 6-well culture plates were treated with embelin for 48 hours. An additional control was prepared by adding the pan-caspase inhibitor Z-VAD-FMK (2 uM final) 5 min before adding embelin, to inhibit caspase activation. The cells were collected and stained of active caspase-9 by CaspGLOW Red Active Caspase-9 Staining Kit, and analyzed by flow cytometry in PI channel.
1×10^6 PC-3 cells per well in 6-well culture plates, were treated with various concentrations of embelin, or the same amount of solvent DMSO as vehicle control, for up to 48 hr. An additional control was prepared by adding the pan-caspase inhibitor Z-VAD-FMK (1 uM final) 5 min before adding embelin, to inhibit caspase activation. The cells were collected for staining of active caspase-9 by CaspGLOW Red Active Caspase-9 Staining Kit (BioVision, Inc., Mountain View, Calif.) according to the manufacturer's instructions, with modification. […] The cells were resuspended in 0.3 ml Binding Buffer and analyzed by flow cytometry, using PI channel for active caspase-9 and FITC channel for apoptosis.

Jurkat-Vec cells = test: Annexin V-FITC apoptosis assay, Jurkat-Vec; format: cell-based; conditions: combination with etoposide, 15 hours
Description: (§2) FIGS. 8A and 8B present (A): Dose-dependent induction of apoptosis by etoposide in Jurkat cells transfected with vector control (Jurkat-Vec) and stably transfected with XIAP (Jurkat-XIAP cells); and (B): Induction of apoptosis by etoposide and embelin alone and in combination in Jurkat-Vec and Jurkat-XIAP cells. 1×10^6 Jurkat-XIAP or Jurkat-Vec cells per well in 6-well culture plates were treated with etoposide and embelin alone, or in combination for 15 hours, then stained with Annexin V-FITC and propidium iodide for apoptosis by flow cytometry. The results are shown as percent of Annexin V-FITC positive apoptotic cells.
as §1

Jurkat-XIAP cells = test: Annexin V-FITC apoptosis assay, Jurkat-XIAP; format: cell-based; conditions: combination with etoposide, 15 hours
Description: as §2, §1

[3] = tested on: methylcholanthrene-induced fibrosarcoma; conditions: methylcholanthrene-induced fibrosarcoma in albino rats (Chitra et al. 1994); cited from earlier work

In the case of `CCCCCCCCCCCC1=C(O)C(=O)C=C(O)C1=O` [embelin], the “PC-3 cells that underwent apoptosis (Annexin V-FITC positive)” value ([1]; 25 μM) was 30%, the “increase in apoptosis as compared to control cells” value ([1]; 25 μM) was “approximately 3 fold” and the “PC-3 cells that underwent apoptosis (Annexin V-FITC positive)” value ([1]; 50 μM) was 75%. The “increase in apoptosis as compared to control cells” value ([1]; 50 μM) was ~9 fold, the “increase in activated caspase-9 as compared to vehicle treated control cells” value (caspase-9 in PC-3 cells; 20 μM) was 10 fold and the “PC-3 cells positively stained for activated caspase-9” value (caspase-9 in PC-3 cells; 20 μM) was 33.0%. The “increase in activated caspase-9 as compared to vehicle treated control cells” value (caspase-9 in PC-3 cells; 40 μM) was 20 fold, the “PC-3 cells positively stained for activated caspase-9” value (caspase-9 in PC-3 cells; 40 μM) was 62.1% and the “activation of caspase-9 in PC-3 cells” value (caspase-9 in PC-3 cells; in words) was “effectively activates caspase-9 in a dose-dependant manner”. For the same compound, the “activation of caspase-9 in normal PrEC” value [2] was “no significant effect”, the “activation of caspase-9 in normal PrEC” value ([2]; listed as Embelin) was “minimal effects” and the “effect on etoposide-induced apoptosis in combination, compared to etoposide alone” value (Jurkat-Vec cells) was “did not increase”. For the same compound, the “percentage of apoptotic cells in combination, compared to either drug alone” value (Jurkat-XIAP cells) was “significantly increased” and the antitumor activity [3] was “significant antitumor activity”.
